Results reported in patent US7067619B2, “Integrin-binding peptides” (La Jolla Cancer Research Foundation, priority 1993, dated 2006).

Test system: α5β1 integrin
Assay: Inhibition of attachment of CHO C11 cells to fibronectin
Assay type: cell-based, Chinese hamster
Description: Cell lines expressing different integrins were used to examine peptide inhibition of integrin function. A human melanoma cell line, C8161, a fibroblast cell line, WI-38, and an osteosarcoma cell line, MG-63 (described by Seftor et al., Canc. Res., 53:3411–3415 (1993); Vogel et al., J. Biol. Chem., 265:5934–5937 (1990); and Pytela et al. (1985), supra, respectively, each of which is incorporated herein by reference) attach to fibronectin through α5β1 integrin, as does B2/α27, a CHO cell line transfected with human α5. B2/C1, the control parental CHO line (Bauer et al., J. Cell. Biol. 116:477–487 (1992), which is incorporated herein by reference), attaches via […]. CHO cells C11 and NIH 3T3 cells express the endogenous Chinese hamster and mouse α5β1 integrins, respectively. The human melanoma cells, A375-M, attach to fibronectin through both α5β1 and α4β1 integrins (Mould et al., J. Biol. Chem. 265:4020–4024 (1990), which is incorporated herein by reference). CHO cell line B2/v7 express the αvβ1 integrin (Zhang et al., J. Cell. Biol. 122:235–242 (1993), which is incorporated herein by reference). […]
Cell lines expressing fibronectin-binding integrins were used to determine peptide activities against these integrins in the cell attachment assay described by Ruoslahti et al., Meth. […] Bound cells were quantitated by staining with 0.1% amido black.

## GACRRETAWACGA
  blocking of attachment of CHO C11 cells to fibronectin: could not block
